Experimental data reported in US5474988A, “5-phenylpyrrolo-1,4-benzoxazine and 5-phenylpyrrolo-1,4-benzothiazine compounds, process and intermediates for their production and pharmaceutical compositions containing them” (Kali-Chemie Pharma GmbH, priority 1993, dated 1995).

target: T1, 5-lipoxygenase (Cavia porcellus, UniProt A0A286X958); assay: inhibitory activity on free 5-lipoxygenase concentrated from peritoneal PMNs of the guinea-pig (5-HETE formation); assay type: biochemical; details: 10^-5 mole/liter; guinea-pig 5-LO, 37° C.; read-out: In vitro % inhibitory activity on 5-HETE formation caused by free 5-LO
T1 construct: The 5-LO was concentrated in a known manner from PMNs of male Dunkin-Hartley guinea-pigs; endogenous in cells; host or cells: peritoneal PMNs of male Dunkin-Hartley guinea-pigs, homogenized; 10,000 x g supernatant used as enzyme solution
T1 sequence (A0A286X958 1-674): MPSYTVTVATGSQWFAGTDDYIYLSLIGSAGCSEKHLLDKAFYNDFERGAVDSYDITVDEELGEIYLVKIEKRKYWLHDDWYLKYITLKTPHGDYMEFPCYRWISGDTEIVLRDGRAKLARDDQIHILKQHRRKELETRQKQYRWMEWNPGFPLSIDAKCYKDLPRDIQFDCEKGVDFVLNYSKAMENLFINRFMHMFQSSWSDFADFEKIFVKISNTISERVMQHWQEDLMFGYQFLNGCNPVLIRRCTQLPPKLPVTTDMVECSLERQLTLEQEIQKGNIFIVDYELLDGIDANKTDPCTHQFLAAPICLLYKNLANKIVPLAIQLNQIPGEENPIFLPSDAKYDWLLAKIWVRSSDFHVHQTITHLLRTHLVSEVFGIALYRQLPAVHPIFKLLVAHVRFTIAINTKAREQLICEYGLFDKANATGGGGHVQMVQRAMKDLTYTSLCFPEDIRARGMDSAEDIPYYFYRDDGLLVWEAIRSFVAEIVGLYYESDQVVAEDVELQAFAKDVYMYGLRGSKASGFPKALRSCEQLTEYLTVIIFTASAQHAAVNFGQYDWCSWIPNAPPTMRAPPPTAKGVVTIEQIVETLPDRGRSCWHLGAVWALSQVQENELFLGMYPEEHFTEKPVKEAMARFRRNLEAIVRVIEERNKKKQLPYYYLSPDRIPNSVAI
Text: 4b. In vitro determination of inhibitory activity on 5-lipoxygenase concentrated from peritoneal PMNs of the guinea-pig.
An inhibition of 5-lipoxygenase can be caused by direct inhibitory action of the substances on the enzyme and/or by interference with the activation of the enzyme. While in test 4a the 5-lipoxygenase inhibition of the substances was investigated in rat PMN cells, in test 4b the inhibitory activity of the substances was investigated on free 5-LO concentrated from guinea-pig PMN cells according to the method of D. Aharony et al., J. Biol. Chem. 261 (1986), 11512-11519 (1986).
The 5-LO was concentrated in a known manner from PMNs of male Dunkin-Hartley guinea-pigs (body weight 400 to 500 g) as follows. 10 ml of a solution containing 27.9 g/l of sodium thioglycolate were injected i.p. into the animals in order to induce the PMN invasion as a result of this inflammatory stimulus. After 22 hours, the animals were sacrificed by lethal ether anaesthesia. 70 ml of HBSS without Ca^++ and Mg^++ ions and containing 0.2% by weight of sodium citrate were then injected into the abdominal cavity. The cell suspension (>80% of the cells are PMNs) was withdrawn from the abdominal cavity, filtered through a cheese-making filter cloth, and washed twice with a 50 mM potassium phosphate buffer solution of pH 7.4, which contained 0.5 mM ethylenediaminetetraacetic acid, 1% by weight of gelatine and 20 μM indomethacin. The cells were resuspended, and the PMN suspension containing 10^8 cells/ml was homogenized three times for 15 seconds each in an ice-bath in a homogenizer of the Labsonic™ type set at high speed. The resulting suspension was centrifuged at 4° C. (15 minutes at 10,000×g). The supernatant liquid was used for the investigation as a solution of the free 5-LO enzyme.
The experiments were carried out at 37° C. for 7 minutes using 0.625 ml samples of this enzyme solution. For the experiments, the enzyme solution (=equivalent of 2.5×10^7 cells), 0.5 mM glutathione, 1 mM ATP and 0.3 mM calcium chloride were added to test tubes. […] of the test substance were added to the samples dissolved in sufficient dimethylformamide such that the dimethylformamide concentration in each test tube is 0.5%. Only dimethylformamide was added to the control samples. After 2 minutes, the formation of 5-(S)-hydroxy-6,8,11,14-eicosatetraenoic acid (=[…]) was initiated by addition 10 μM arachidonic acid. After 5 minutes, the reaction was terminated by addition of 0.625 ml of a mixture of methyl acetate/methanol/0.2 m citric acid 15:2:0.5 v/v/v. 5-HETE was extracted twice using this solvent mixture. The 5-HETE-containing phases were combined and evaporated to dryness under a nitrogen atmosphere. The residue was taken up in a mixture of methanol/water/acetic acid 75:21:0.02 v/v/v having a pH of 5.7, and the solution was investigated for its content of 5-HETE by means of reverse phase HPLC. To accomplish this, a […] silanized silica gel column (Hichrom® ODS2, 250×4.6 mm) was employed as the adsorbent and a mixture of methanol/water/acetic acid 75:21:0.02 adjusted to pH 5.7 with ammonia and having a flow rate of 1 ml/min was used as the eluent. 5-HETE, which was eluted as a single peak after 20 minutes, was identified by comparison with standard solutions eluted at the same time and determined using a UV light detector at a wavelength of 235 nm. Quantitative determination was carried out by comparison of the peak area obtained with peak areas occurring in the calibrated standard solutions. From the 5-HETE contents of the samples determined, the inhibitory activity of the test substances was calculated in % inhibition of 5-HETE synthesis in comparison to the control samples containing no test substance.

| SMILES | inhibition at 10 µM [%] |
| --- | --- |
| Cc1cccnc1N1CCN(CCCC2Cn3c(-c4cc(C)c(O)c(C)c4)c(C)c4c(O)ccc(c43)O2)CC1 (centres unmarked) [Example 74] | 100 |
| Cc1ccnc(N2CCN(CCC3Cn4c(-c5ccc(O)c(O)c5)c(C)c5cccc(c54)O3)CC2)c1 (centres unmarked) [Example 13] | 99 |
| Cc1ccnc(N2CCN(CCC3Cn4c(-c5cc(C)c(O)c(C)c5)c(C)c5cc(F)cc(c54)O3)CC2)c1 (centres unmarked) [Example 42] | 55 |
| Cc1ccnc(N2CCN(C(=O)CCC3Cn4c(-c5ccc(O)cc5)c(C)c5c(O)ccc(c54)O3)CC2)c1 (centres unmarked) [Example 69] | 100 |
| Cc1cc(-c2c(C)c3c(O)ccc4c3n2CC(CCC(=O)N2CCN(c3ccccn3)CC2)O4)cc(C)c1O (centres unmarked) [Example 71] | 100 |
| Cc1cc(-c2c(C)c3cccc4c3n2CC(CCCCN2CCN(c3ccccn3)CC2)O4)cc(C)c1O (centres unmarked) [Example 65] | 99 |
| COc1cc(-c2c(C)c3cccc4c3n2CC(CCC(=O)N2CCN(c3ccc(C)cn3)CC2)O4)ccc1O (centres unmarked) [Example 39] | 100 |
| Cc1ccnc(N2CCN(CCCC3Cn4c(-c5cc(C)c(O)c(C)c5)c(C)c5c(F)ccc(c54)O3)CC2)c1 (centres unmarked) [Example 29] | 67 |
| COc1cc(-c2c(C)c3cccc4c3n2CC(CCN2CCN(c3cc(C)ccn3)CC2)O4)ccc1O (centres unmarked) [Example 12] | 100 |
| COc1ccc2c3c1c(C)c(-c1ccc(O)cc1)n3CC(CCN1CCN(c3cc(C)ccn3)CC1)O2 (centres unmarked) [Example 3, 2,3-Dihydro-5-(4-hydroxyphenyl)-7-methoxy-6-methyl-2-[2-(4-(4-methylpyridin-2-yl)piperazin-1-yl)ethyl]pyrrolo[1,2,3-de]-1,4-benzoxazine] | 53 |
| Cc1ccnc(N2CCN(C(=O)CCC3Cn4c(-c5ccc(O)cc5)c(C)c5cccc(c54)O3)CC2)c1 (centres unmarked) [Example 15] | 94 |
| Cc1ccnc(N2CCN(C(=O)CCC3Cn4c(-c5cc(C)c(O)c(C)c5)c(C)c5c(O)ccc(c54)O3)CC2)c1 (centres unmarked) [Example 67] | 100 |
| Cc1ccnc(N2CCN(CCC3Cn4c(-c5cc(C)c(O)c(C)c5)c(C)c5c(F)ccc(c54)O3)CC2)c1 (centres unmarked) [Example 28] | 44 |
| Cc1ccnc(N2CCN(CCCC3Cn4c(-c5cc(C)c(O)c(C)c5)c(C)c5c(O)ccc(c54)O3)CC2)c1 (centres unmarked) [Example 73] | 100 |
| Cc1cc(-c2c(C)c3cccc4c3n2CC(CCCC(=O)N2CCN(c3ccccn3)CC2)O4)cc(C)c1O (centres unmarked) [Example 23] | 93 |
| Cc1ccnc(N2CCN(CCC3Cn4c(-c5cc(C)c(O)c(C)c5)c(C)c5cccc(c54)O3)CC2)c1 (centres unmarked) [Example 20] | 100 |
| Cc1ccnc(N2CCN(C(=O)CCCC3Cn4c(-c5cc(C)c(O)c(C)c5)c(C)c5cccc(c54)O3)CC2)c1 (centres unmarked) [Example 9, 2,3-Dihydro-5-(3,5-dimethyl-4-hydroxyphenyl)-6-methyl-2-[4-(4-(4-methylpyridin-2-yl)piperazin-1-yl)-4-oxobutyl]-pyrrolo[1,2,3-de]-1,4-benzoxazine] | 88 |
| Cc1ccnc(N2CCN(CCC3Cn4c(-c5cc(C)c(O)c(C)c5)c(C)c5cc(O)cc(c54)O3)CC2)c1 (centres unmarked) [Example 44] | 98 |
| Cc1ccnc(N2CCN(C(=O)CCC3Cn4c(-c5cc(C)c(O)c(C)c5)c(C)c5cccc(c54)O3)CC2)c1 (centres unmarked) [Example 25] | 92 |
| COc1cc2c3c(c1)c(C)c(-c1cc(C)c(O)c(C)c1)n3CC(CCN1CCN(c3cc(C)ccn3)CC1)O2 (centres unmarked) [Example 43] | 77 |
| COc1cc(-c2c(C)c3c(O)ccc4c3n2CC(CCC(=O)N2CCN(c3ccccn3)CC2)O4)cc(C)c1O (centres unmarked) [Example 72] | 100 |
| Cc1cc(-c2c(C)c3c(OCc4ccccc4)ccc4c3n2CC(CCC(=O)N2CCN(c3ccccn3)CC2)O4)cc(C)c1O (centres unmarked) [Example 75] | 100 |
| Cc1cc(-c2c(C)c3cccc4c3n2CC(CCC(=O)N2CCN(c3ccccn3)CC2)O4)cc(C)c1O (centres unmarked) [Example 26] | 96 |
| Cc1ccc(N2CCN(C(=O)CCC3Cn4c(-c5ccc(O)cc5)c(C)c5cccc(c54)O3)CC2)nc1 (centres unmarked) [Example 34] | 97 |
| Cc1cc(-c2c(C)c3c(F)ccc4c3n2CC(CCN2CCN(c3ccccn3)CC2)O4)cc(C)c1O (centres unmarked) [Example 27] | 50 |
| Cc1ccnc(N2CCN(CCC3Cn4c(-c5ccc(O)cc5)c(C)c5c(O)ccc(c54)O3)CC2)c1 (centres unmarked) [Example 4, 2,3-Dihydro-7-hydroxy-5-(4-hydroxyphenyl)-6-methyl-2-[2-(4-(4-methylpyridin-2-yl)piperazin-1-yl)ethyl]pyrrolo[1,2,3-de]-1,4-benzoxazine] | 100 |
